Patent US10307357B2, “Prebiotic oral care compositions containing an alkyl glycoside” (COLGATE-PALMOLIVE COMPANY, priority 2013, dated 2019)

Key:
Type in all cases: cell-based
Streptococcus gordonii = experiment: Twenty-four hour optical density growth in BHI; settings: over 24 hours, control = 1
Experimental: (§1) The extent of growth of the tested bacteria in response to selected glycosides (β-methyl-D-galactoside and α-methyl-D-galactoside) was investigated by setting up growth curves in a nutritionally rich medium (brain heart infusion broth (BHI), Oxoid), over 24 hours. Late exponential growth phase liquid cultures were prepared by transferring the respective bacterium from blood agar plates to BHI and overnight incubation at 37° C. in an anaerobic atmosphere for A. viscosus, V. parvula, F. nucleatum, P. gingivalis, P. intermedia, T. forsythia, A. naeslundii, and C. sputigena, and in a 5% CO2 environment for S. salivarius, S. sanguinis, S. mitis, A. actinomycetemcomitans, S. mutans, S. sobrinus and S. gordonii. Overnight cultures were transferred to BHI and adjusted to a concentration of 1×10^7 CFU/ml (colony forming units per ml) by measuring the optical density at 600 nm (OD600) (BioRad SmartSpec 3000). For each strain, 200 μl of the bacterial suspension was added to a 96-well plate containing 20 μl of the respective glycosides. Final concentrations of the glycosides were set to 5, 10, 20 and 25 μmol/ml. […] Plates were incubated as previously described. For each combination of bacterium/glycoside, and for each of their respective controls (i.e. the particular bacterium in the nutritionally rich medium with no glycoside), the optical density was measured at 630 nm (OD630) at 0 h and 24 h (Thermo Scientific Multiskan Ascent). Additionally, the OD630 for combinations of bacterium/glycosides grown in a 5% CO2 environment were also measured every hour between 0 h and 9 h. […] The experiment was carried out on three different days (thus providing 3 biological replicas) and on each day the experiment was carried out in quadruple (thus providing 4 technical replicas) for each combination of bacterium with glycoside and for each control. For each day and for each combination, the average (mean) of the values obtained (as detailed above) for the four technical replicas was calculated to provide a single value for each combination on each day. The values shown in Tables 5 to 6, below, are the average (mean) of the three single values obtained for each combination of bacterium with glycoside (α-Methyl-D-Galactoside=α-MDG; β-Methyl-D-Galactoside=β-MDG).

Streptococcus salivarius = experiment: Twenty-four hour optical density growth in BHI; settings: over 24 hours, control = 1
Experimental: as §1

Fusobacterium nucleatum = experiment: Twenty-four hour optical density growth in BHI; settings: over 24 hours, control = 1
Experimental: as §1

Capnocytophaga sputigena = experiment: Twenty-four hour optical density growth in BHI; settings: over 24 hours, control = 1
Experimental: as §1

Streptococcus sanguinis = experiment: Twenty-four hour optical density growth in BHI; settings: over 24 hours, control = 1
Experimental: as §1

Streptococcus mutans = experiment: Twenty-four hour optical density growth in BHI; settings: over 24 hours, control = 1
Experimental: as §1

Actinomyces viscosus = experiment: Twenty-four hour optical density growth in BHI; settings: over 24 hours, control = 1
Experimental: as §1

[1] = tested on: beneficial oral bacteria and pathogenic oral bacteria; experiment: Microarray screen, conclusion over the panel; settings: at 24 hrs and at 48 hrs; threshold 2
Experimental: Substrates that were able to increase the metabolic activity of at least one of the above beneficial bacteria while not or only minimally increasing the growth of the pathogenic bacteria are considered to be prebiotic substrates. The extent of metabolic activity of the tested bacteria in the presence of the above-mentioned glycosides after 24 hours and 48 hours was investigated through a high throughput phenotype microarray system (PM) for microbial cells (Biolog Inc.). Each PM can contain up to 95 different biochemical compounds (e.g. glycosides) that may act as substrates for bacteria as well as one negative control, not containing the substrates. Microarray plates were used in which the different wells of each plate were pre-loaded (by the manufacturer, Biolog Inc.) with different glycosides to be tested. […] Color changes were measured spectrophotometrically at 492 nm (Thermo Scientific Multiskan Ascent) at 24 hrs and 48 hrs using the same plate at both time points. […] After 24 hrs and 48 hrs under continuous shaking in a Multiscan microplate reader, the optical density (OD) of the synthetic medium at 24 hours and 48 hours was measured (using the microplate reader) at a wavelength of 492 nm for each combination of bacterium/glycoside, and for each of their respective controls (i.e. which contained the particular bacterium but no glycosides). […]

SMILES | maximal OD630 divided by control (extent of growth) (Streptococcus gordonii; 5 μmol/ml) | maximal OD630 divided by control (extent of growth) (Streptococcus gordonii; 10 μmol/ml) | maximal OD630 divided by control (extent of growth) (Streptococcus gordonii; 20 μmol/ml) | maximal OD630 divided by control (extent of growth) (Streptococcus gordonii; 25 μmol/ml) | maximal OD630 divided by control (extent of growth) (Streptococcus salivarius; 5 μmol/ml) | maximal OD630 divided by control (extent of growth) (Streptococcus salivarius; 10 μmol/ml) | maximal OD630 divided by control (extent of growth) (Streptococcus salivarius; 20 μmol/ml) | maximal OD630 divided by control (extent of growth) (Streptococcus salivarius; 25 μmol/ml) | maximal OD630 divided by control (extent of growth) (Fusobacterium nucleatum; 5 μmol/ml) | maximal OD630 divided by control (extent of growth) (Fusobacterium nucleatum; 10 μmol/ml) | maximal OD630 divided by control (extent of growth) (Fusobacterium nucleatum; 20 μmol/ml) | maximal OD630 divided by control (extent of growth) (Fusobacterium nucleatum; 25 μmol/ml) | maximal OD630 divided by control (extent of growth) (Capnocytophaga sputigena; 5 μmol/ml) | maximal OD630 divided by control (extent of growth) (Capnocytophaga sputigena; 10 μmol/ml) | maximal OD630 divided by control (extent of growth) (Capnocytophaga sputigena; 20 μmol/ml) | maximal OD630 divided by control (extent of growth) (Capnocytophaga sputigena; 25 μmol/ml) | maximal OD630 divided by control (extent of growth) (Streptococcus sanguinis; 5 μmol/ml) | maximal OD630 divided by control (extent of growth) (Streptococcus sanguinis; 10 μmol/ml) | maximal OD630 divided by control (extent of growth) (Streptococcus sanguinis; 20 μmol/ml) | maximal OD630 divided by control (extent of growth) (Streptococcus sanguinis; 25 μmol/ml) | also measured
CO[C@H]1O[C@H](CO)[C@H](O)[C@H](O)[C@H]1O [α-methyl-D-galactoside] | 0.9997 | 0.9966 | 1.0089 | 1.0255 | 0.8965 | 0.8910 | 0.8640 | 0.8725 | 0.8598 | 0.8398 | 0.7917 | 0.7921 | 0.8698 | 0.8897 | 0.8728 | 0.8809 | 0.9521 | 0.9343 | 0.8872 | 0.9294 | maximal OD630 divided by control (extent of growth) (Streptococcus mutans; 5 μmol/ml): 0.9703; maximal OD630 divided by control (extent of growth) (Streptococcus mutans; 10 μmol/ml): 0.9003; maximal OD630 divided by control (extent of growth) (Streptococcus mutans; 20 μmol/ml): 0.4212; maximal OD630 divided by control (extent of growth) (Streptococcus mutans; 25 μmol/ml): 0.2492; maximal OD630 divided by control (extent of growth) (Actinomyces viscosus; 5 μmol/ml): 0.6181; maximal OD630 divided by control (extent of growth) (Actinomyces viscosus; 10 μmol/ml): 0.5756; maximal OD630 divided by control (extent of growth) (Actinomyces viscosus; 20 μmol/ml): 0.4433; maximal OD630 divided by control (extent of growth) (Actinomyces viscosus; 25 μmol/ml): 0.4453; prebiotic effect (metabolic activity), in words [1]: exhibited prebiotic effects
CO[C@@H]1O[C@H](CO)[C@H](O)[C@H](O)[C@H]1O [β-methyl-D-galactoside] | 0.9811 | 0.9760 | 0.9954 | 1.0054 | 1.2275 | 1.5208 | 1.7353 | 1.7445 | 0.8134 | 0.8181 | 0.8161 | 0.8213 | 0.8841 | 0.8633 | 0.8645 | 0.8575 | 0.8787 | 0.8540 | 0.8629 | 0.8842 | maximal OD630 divided by control (extent of growth) (Streptococcus mutans; 5 μmol/ml): 0.9473; maximal OD630 divided by control (extent of growth) (Streptococcus mutans; 10 μmol/ml): 0.9083; maximal OD630 divided by control (extent of growth) (Streptococcus mutans; 20 μmol/ml): 0.7929; maximal OD630 divided by control (extent of growth) (Streptococcus mutans; 25 μmol/ml): 0.5618; maximal OD630 divided by control (extent of growth) (Actinomyces viscosus; 5 μmol/ml): 0.6467; maximal OD630 divided by control (extent of growth) (Actinomyces viscosus; 10 μmol/ml): 0.6333; maximal OD630 divided by control (extent of growth) (Actinomyces viscosus; 20 μmol/ml): 0.6745; maximal OD630 divided by control (extent of growth) (Actinomyces viscosus; 25 μmol/ml): 0.6464; prebiotic effect (metabolic activity), in words [1]: exhibited prebiotic effects
